From patent publication US9765018B2, “IDO inhibitors” (BRISTOL-MYERS SQUIBB COMPANY, priority 2013, dated 2017) come the findings set out here.

The target of test [1] is T1, IDO (Homo sapiens (Human), UniProt P14902). Put plainly: LLE_IDO_ABS_DR (IDO assay, method not described).
The target of a further test is Human IDO1 (Homo sapiens (Human), UniProt P14902). Put plainly: IDO Kynurenine Assay with Human IDO1/HEK293 Cells. The note with it: HEK293 cells with human IDO1; read-out: HEK human IDO-1 (IC50). It counts as cell-based. How it is done: IDO Kynurenine Assay with Human IDO1/HEK293 Cells
Human IDO1/HEK293 cells were seeded at 10,000 cells per 50 uL per well with RPMI/phenol red free media contains 10% FBS in a 384-well black wall clear bottom tissue culture plate (Matrix Technologies LLC) 125 nL of certain concentration of compound was then added to each well using ECHO liquid handling systems. The cells were incubated for 20 hours in 37° C. incubator with 5% CO2.
The compound treatments were stopped by adding Trichloroacetic Acid (Sigma-Aldrich) to a final concentration at 0.2%. The cell plate was further incubated at 50° C. for 30 minute. The equal volume supernatant (20 uL) and 0.2% (w/v) Ehrlich reagent (4-dimethylaminobenzaldehyde, Sigma-Aldrich) in glacial acetic acid were mixed in a new clear bottom 384-well plate. This plate was then incubated at room temperature for 30 minute. The absorbance at 490 nm was measured on Envision plate reader.

For test [2], the target named is T1, IDO. The test can be described thus: Kynurenine assay in IFN-γ-stimulated Hela cells. The class given is cell-based. The note with it: 20 h, read-out: Hela Kyurenine (IC50). A digest of the protocol:
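Kynurenine in supernatant is read at 490 nm after Ehrlich reagent (10 min RT), following TCA stop and 30 min at 50° C hydrolysis. Before that, Hela cells in phenol red-free RPMI/10% FBS were co-treated 20 h at 37° C with 100 ng/mL IFN-γ and compound (30 μM top, 3-fold series to 1.5 nM).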

T1 sequence (P14902 whole entry): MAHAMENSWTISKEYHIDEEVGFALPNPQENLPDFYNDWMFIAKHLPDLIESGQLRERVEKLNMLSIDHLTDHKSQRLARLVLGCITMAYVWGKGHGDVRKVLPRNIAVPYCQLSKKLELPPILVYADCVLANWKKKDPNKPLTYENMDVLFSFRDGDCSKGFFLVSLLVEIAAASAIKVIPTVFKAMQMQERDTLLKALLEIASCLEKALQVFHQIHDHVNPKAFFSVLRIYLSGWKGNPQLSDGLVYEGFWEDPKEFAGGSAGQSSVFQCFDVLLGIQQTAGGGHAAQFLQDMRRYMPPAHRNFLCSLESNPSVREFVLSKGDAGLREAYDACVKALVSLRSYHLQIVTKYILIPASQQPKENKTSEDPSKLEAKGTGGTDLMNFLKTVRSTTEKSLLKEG
Human IDO1, sequence (P14902 whole entry): as above

As a reminder, the IC50 is the concentration needed to halve the response being measured. As for `C/C=C/Cc1cc(-c2ccccc2-c2nnn[nH]2)cc(NC(=O)Nc2ccc(C)cc2)c1OCCC` [Example 19, (E)-1-(5-(But-2-en-1-yl)-4-propoxy-2′-(1H-tetrazol-5-yl)-[1,1′-biphenyl]-3-yl)-3-(p-tolyl)urea], the IC50 amounted to 20 nM against IDO [1] and 30 nM on Human IDO1.

`COc1ccc(-c2ccc(Oc3ccccc3C(C)(C)C)c(NC(=O)Nc3ccc(Cl)cc3Cl)c2)cc1C(=O)O` [Example 103, 4′-(2-(tert-butyl)phenoxy)-3′-(3-(2,4-dichlorophenyl)ureido)-4-methoxy-[1,1′-biphenyl]-3-carboxylic acid]: the figures for the IC50 at IDO [1], on IDO [2] and at Human IDO1 were 470 nM, 90 nM and 1310 nM, respectively.

For `CCCOc1c(CCCc2ccccc2)cc(-c2ccccc2C(=O)O)cc1NC(=O)Nc1ccc(C)cc1` [Example 36, 3′-(3-Phenylpropyl)-4′-propoxy-5′-(3-p-tolylureido)biphenyl-2-carboxylic acid], the IC50 at IDO [1] worked out at 30 nM; on Human IDO1, 20 nM.

In the case of `Cc1cccc(NC(=O)Nc2cc(-c3ccccc3-c3nnn[nH]3)cc(CC3CC3)c2Oc2ccccc2)c1` [Example 323], the IC50 worked out at 40 nM against IDO [1] and 60 nM on Human IDO1.

Regarding `COc1ccc(-c2ccc(Oc3cccc4c3CCCC4)c(NC(=O)Nc3ccccc3Cl)c2)cc1C(=O)O` [Example 114, 3′-(3-(2-chlorophenyl)ureido)-4-methoxy-4′-(5,6,7,8-tetrahydronaphthalen-1-yloxy)biphenyl-3-carboxylic acid], the IC50 against IDO [1] is 100 nM; at IDO [2], 20 nM; at Human IDO1, 120 nM.

As for `CCCCc1cc(-c2ccccc2-c2nnn[nH]2)cc(NC(=O)Nc2ccc(C)cc2)c1OCCC` [Example 22, 1-(5-Butyl-4-propoxy-2′-(1H-tetrazol-5-yl)-[1,1′-biphenyl]-3-yl)-3-(p-tolyl)urea], the IC50 against IDO [1] came to 20 nM; on Human IDO1 it was 5.92 nM.

As for `CCCOc1c(C/C=C/C(F)(F)F)cc(-c2ccccc2-c2nnn[nH]2)cc1NC(=O)Nc1ccc(C)cc1` [Example 32, (E)-1-(4-Propoxy-2′-(1H-tetrazol-5-yl)-5-(4,4,4-trifluorobut-2-en-1-yl)-[1,1′-biphenyl]-3-yl)-3-(p-tolyl)urea], the IC50 against IDO [1] amounted to 9.47 nM; at Human IDO1, 10 nM.

For `COc1ccc(-c2ccc(Oc3cccc4c3CCC4)c(NC(=O)Nc3ccc(C)cc3)c2)cc1C(=O)O` [Example 145, 4′-(2,3-dihydro-1H-inden-4-yloxy)-4-methoxy-3′-(3-p-tolylureido)biphenyl-3-carboxylic acid], the IC50 came out at 790 nM at IDO [1], 280 nM on IDO [2] and 1590 nM at Human IDO1.

For the molecule `COc1ccc(-c2ccc(Oc3ccccc3C(C)(C)C)c(NC(=O)Nc3ccccc3F)c2)cc1C(=O)O` [Example 79, 4′-(2-(tert-butyl)phenoxy)-3′-(3-(2-fluorophenyl)ureido)-4-methoxy-[1,1′-biphenyl]-3-carboxylic acid], the IC50 against IDO [1] worked out at 130 nM; at IDO [2], 60 nM; at Human IDO1, 420 nM.

As to `COc1ccc(-c2ccc(Oc3ccccc3C(C)(C)C)c(NC(=O)Nc3ccc(C)cc3)c2)cc1NS(=O)(=O)C(F)(F)F` [Example 7, N-(4′-(2-tert-Butylphenoxy)-4-methoxy-3′-(3-p-tolylureido)biphenyl-3-yl)-1,1,1-trifluoromethanesulfonamide], the IC50 at IDO [1] stood at 320 nM; on IDO [2] it was 110 nM; at Human IDO1 it was 750 nM.

In the case of `O=C(Nc1ccc(C2CC2)cc1)Nc1cc(-c2ccccc2-c2nnn[nH]2)cc(CC2CC2)c1OCCC(F)(F)F` [Example 316], the concentration for half-maximal inhibition (IC50) at IDO [1] and at Human IDO1 was 40 nM in each case.

Turning to `CCOc1ccc(-c2ccc(Oc3ccccc3C(C)(C)C)c(NC(=O)Nc3ccc(C)cc3)c2)cc1C(=O)O` [Example 5, 4′-(2-tert-Butylphenoxy)-4-ethoxy-3′-(3-p-tolylureido)biphenyl-3-carboxylic acid], the half-maximal inhibitory concentration (IC50) was 1010 nM at IDO [1], 120 nM at IDO [2] and 1830 nM on Human IDO1.

In the case of `C=CC(c1ccccc1)c1cc(-c2ccccc2-c2nnn[nH]2)cc(NC(=O)Nc2ccc(C)cc2)c1OCCC` (racemic) [Example 8, 1-(5-(1-Phenylallyl)-4-propoxy-2′-(1H-tetrazol-5-yl)-[1,1′-biphenyl]-3-yl)-3-(p-tolyl)urea], the figures for the IC50 against IDO [1] and at Human IDO1 were 10 nM and 30 nM, respectively.

For `COc1ccc(-c2ccc(Oc3cccc4c3CCCC4)c(NC(=O)Nc3ccc(C)c(C)c3)c2)cc1C(=O)O` [Example 153, 3′-(3-(3,4-dimethylphenyl)ureido)-4-methoxy-4′-(5,6,7,8-tetrahydronaphthalen-1-yloxy)biphenyl-3-carboxylic acid], the IC50 is 530 nM on IDO [1], 40 nM at IDO [2] and 920 nM at Human IDO1.

Regarding `CCCC(Oc1ccc(-c2ccccc2-c2nnn[nH]2)cc1NC(=O)Nc1ccc(C)cc1)c1ccccc1Cl` (centres unmarked) [Example 313], the IC50 was 90 nM at IDO [1] and 610 nM on Human IDO1.

As to `CCCc1ccccc1Oc1ccc(-c2ccc(OC)c(C(=O)O)c2)cc1NC(=O)Nc1ccc(C)cc1` [Example 77, 4-methoxy-4′-(2-propylphenoxy)-3′-(3-p-tolylureido)biphenyl-3-carboxylic acid], the IC50 amounted to 780 nM at IDO [1], 330 nM at IDO [2] and 2330 nM at Human IDO1.

On to `CCCOc1c(NC(=O)Nc2ccc(C)cc2)cc(-c2ccccc2-c2nnn[nH]2)cc1C(CC)CCCc1ccccc1` (centres unmarked) [compound 297], for which the IC50 against IDO [1] came out at 50 nM; at Human IDO1, 90 nM.

Regarding `CCCOc1c(/C=C/CC(F)(F)F)cc(-c2ccccc2-c2nnn[nH]2)cc1NC(=O)Nc1ccc(C)cc1` [Example 29, (E)-1-(4-Propoxy-2′-(1H-tetrazol-5-yl)-5-(4,4,4-trifluorobut-1-en-1-yl)-[1,1′-biphenyl]-3-yl)-3-(p-tolyl)urea], the IC50 at IDO [1] and at Human IDO1 was 30 nM in each case.

Regarding `CCCOc1c(Br)cc(-c2ccccc2-c2nnn[nH]2)cc1NC(=O)Nc1ccc(C)cc1` [Example 283], the IC50 on IDO [1] was found to be 30 nM; at Human IDO1, 60 nM.

Consider `CCCOc1c(NC(=O)Nc2ccc(C)cc2)cc(-c2ccccc2-c2nnn[nH]2)cc1C(CC)c1ccccc1` (centres unmarked) [Example 298], for which the half-maximal inhibitory concentration (IC50) against IDO [1] and on Human IDO1 was 30 nM throughout.

Take `CCCOc1c(CCCC(F)(F)F)cc(-c2ccccc2-c2nnn[nH]2)cc1NC(=O)Nc1ccc(C)cc1` [Example 31, 1-(4-Propoxy-2′-(1H-tetrazol-5-yl)-5-(4,4,4-trifluorobutyl)-[1,1′-biphenyl]-3-yl)-3-(p-tolyl)urea]: the IC50 at IDO [1] was determined as 40 nM; on Human IDO1, 20 nM.

`CCCOc1c(CCC)cc(-c2ccccc2-c2nnn[nH]2)cc1NC(=O)Nc1ccc(C)cc1` [Example 16, 1-(4-Propoxy-5-propyl-2′-(1H-tetrazol-5-yl)-[1,1′-biphenyl]-3-yl)-3-(p-tolyl)urea]: the IC50 against IDO [1] and at Human IDO1 was 30 nM each time.

Consider `O=C(Nc1ccc(OC(F)(F)F)cc1)Nc1cc(-c2ccccc2-c2nnn[nH]2)cc(CC2CC2)c1OCC1CC1` [Example 321], for which the IC50 was found to be 10 nM against IDO [1] and 30 nM at Human IDO1.

With `CCCCCc1cc(-c2ccccc2-c2nnn[nH]2)cc(NC(=O)Nc2ccccc2F)c1OCCC` [Example 289], the IC50 at IDO [1] turned out to be 9.83 nM; at Human IDO1 it was 50 nM.

In the case of `O=C(Nc1ccc(OC(F)(F)F)cc1)Nc1cc(-c2ccccc2-c2nnn[nH]2)cc(CC2CC2)c1OCCC(F)(F)F` [Example 319], the IC50 against IDO [1] is 50 nM; on Human IDO1, 90 nM.

As for `CC/C=C/Cc1cc(-c2ccccc2-c2nnn[nH]2)cc(NC(=O)Nc2ccccc2F)c1OCCC` [Example 284], the IC50 against IDO [1] was determined as 5.56 nM; on Human IDO1 it was 6.49 nM.

With `CCCC(CCC)Oc1c(Br)cc(-c2ccccc2-c2nnn[nH]2)cc1NC(=O)Nc1ccccc1F` [Example 287], the IC50 against IDO [1] was determined as 3.25 nM; at Human IDO1 it was 4.49 nM.

Regarding `CCCOc1c(/C=C/C=C(F)F)cc(-c2ccccc2-c2nnn[nH]2)cc1NC(=O)Nc1ccc(C)cc1` [Example 30, (E)-1-(5-(4,4-Difluorobuta-1,3-dien-1-yl)-4-propoxy-2′-(1H-tetrazol-5-yl)-[1,1′-biphenyl]-3-yl)-3-(p-tolyl)urea], the IC50 against IDO [1] turned out to be 9.95 nM; at Human IDO1, 20 nM.

With `COc1ccccc1Oc1ccc(-c2ccc(OC)c(C(=O)O)c2)cc1NC(=O)Nc1ccc(C)cc1` [Example 69, 4-methoxy-4′-(2-methoxyphenoxy)-3′-(3-p-tolylureido)biphenyl-3-carboxylic acid], the values for the IC50 at IDO [2] and at Human IDO1 were 2090 nM and 6190 nM, respectively.

On to `Cc1ccc(NC(=O)Nc2cc(-c3ccc(Cl)c(C(=O)O)c3)ccc2Oc2ccccc2C(C)(C)C)cc1` [Example 1, 4′-(2-tert-Butylphenoxy)-4-chloro-3′-(3-p-tolylureido)biphenyl-3-carboxylic acid], for which the IC50 at IDO [2] was 2420 nM; on Human IDO1, 6180 nM.
